According to US9233095B2, “Small molecule RNase inhibitors and methods of use” (University of Rochester, priority 2011, dated 2016):
≈ marks a conversion by molar mass, not a printed value. Like-named read-outs stand apart in the source and are kept apart here.

Experiments:
Assay in all cases: CLSI broth microdilution MIC
S. pneumoniae = assay type: cell-based; conditions: Streptococcus pneumoniae
Excerpt: (§1) In some examples, compounds can be further assayed using the Mueller Hinton (MH) broth antibacterial assay as specified by the Clinical and Laboratory Standards Institute MIC broth microdilution protocol (see Methods for Dilution Antimicrobial Susceptibility Tests for Bacteria That Grow Aerobically; Approved Standard, In The Clinical and Laboratory Standards Institute (CLSI, formerly NCCLS), 7th ed., January 2006, 26 (2), M7-A7; see also Performance Standards for Antimicrobial Susceptibility Testing; Eighteenth Informational Supplement, In The Clinical and Laboratory Standards Institute (CLSI, formerly NCCLS), January 2008, 28 (1), M100-S18).
(§2) With the exception of RN4220-derivatives, in vitro activities of RNPA1000 against bacteria were determined by the broth microdilution method according to the Clinical and Laboratory Standards Institute (CLSI) guidelines using cation adjusted Mueller-Hinton broth or MH broth supplemented with 5% lysed horse blood (for testing Streptotococcus spp.). Microtiter plates containing serial dilutions of RNPA1000 (0, 4, 8, 16, 32, 64, and 128 μg/ml) were inoculated with 10^5 colony forming units (CFU)/ml and incubated for 18 hr at 37° C. […] The MIC value for each S. aureus strain was determined to be the median score of replicate measurements (n=5). Wells containing concentrations of RNPA1000≧MIC were plated for minimal bactericidal measurement. Where possible, experiments with VRSA strains were performed in a laminar flow hood to minimize potential for equipment contamination. For RN4220 cells containing plasmid vector (pCN51), RnpA overproducing plasmid (pRNPA-S) or RnpA underproducing plasmid (pRNPA-A.S.) in vitro antimicrobial activity of RNPA1000 was performed by the microdilution method as described above, except that cells were grown in Tryptic Soy Broth medium supplemented with 2.5 μM CdCl2 and 0, 1, 2, 4, 8, 16, 32, 64, or 128 μg/ml RNPA1000. Time-kill assays were also performed to monitor the antimicrobial properties of RNPA1000 for S. aureus strain UAMS-1 in the absence and presence of 0.25, 0.5, 2, and 4 times the strain's MIC for oxacillin (1 μg/ml), rifampicin (0.5 μg/ml), vancomycin (2 μg/ml), or daptomycin (1 μg/ml). The indicated amount of RNPA1000 and/or commercial antibiotic were added to mid-exponential phase (2×10^8 cfu/ml) S. aureus strain UAMS-1 cells and incubated at 37° C. Aliquots were removed at 0, 2, 4, 8, and 24 hr post-antimicrobial challenge, serial diluted, and plated to enumerate resulting cfu/ml. All time-kill assays were repeated at least 3 times.

S. epidermidis = assay type: cell-based; conditions: Staphylococcus epidermidis
Excerpt: as §1, §2

S. aureus (VRSA) = assay type: cell-based; conditions: Staphylococcus aureus
Excerpt: as §1, §2

S. aureus (VISA) = assay type: cell-based; conditions: Staphylococcus aureus
Excerpt: as §1, §2

S. bovis = assay type: cell-based; conditions: Salmonella enterica; S. bovis ATCC49147
Excerpt: as §1, §2

S. pneumoniae (MDR) = assay type: cell-based; conditions: Streptococcus pneumoniae
Excerpt: as §1, §2

B. cereus = assay type: cell-based; conditions: Bacillus cereus; B. cereus Isolate 1
Excerpt: as §1, §2

S. aureus (MRSA) = assay type: cell-based; conditions: Staphylococcus aureus
Excerpt: as §1, §2

S. sanguis = assay type: cell-based; conditions: S. sanguis Isolate 1
Excerpt: as §1, §2

S. pyogenes = assay type: cell-based; conditions: Streptococcus pyogenes; S. pyogenes Isolate 1
Excerpt: as §1, §2

S. agalactiae = assay type: cell-based; conditions: Streptococcus agalactiae
Excerpt: as §1, §2

E. faecalis = assay type: cell-based, Enterococcus faecalis
Excerpt: as §1, §2

Cc1cc(/C=C(/C#N)C(=O)Nc2cccc(Br)c2)c(C)n1-c1ccc(C(=O)O)cc1 [RNPA1000]
MIC (S. pneumoniae; S. pneumoniae Isolate 1): 16 µg/mL (≈ 34.5 µM)
MIC (S. pneumoniae; S. pneumoniae Isolate 2): 16 µg/mL (≈ 34.5 µM)
MIC (S. pneumoniae; S. pneumoniae Isolate 3): 16 µg/mL (≈ 34.5 µM)
MIC (S. pneumoniae; S. pneumoniae Isolate 4): 32 µg/mL (≈ 68.9 µM)
MIC (S. pneumoniae; S. pneumoniae Isolate 5): 16 µg/mL (≈ 34.5 µM)
MIC (S. epidermidis; S. epidermidis Isolate 1): 16 µg/mL (≈ 34.5 µM)
MIC (S. epidermidis; S. epidermidis Isolate 2): 8 µg/mL (≈ 17.2 µM)
MIC (S. epidermidis; S. epidermidis Isolate 3): 8 µg/mL (≈ 17.2 µM)
MIC (S. epidermidis; S. epidermidis Isolate 4): 8 µg/mL (≈ 17.2 µM)
MIC (S. epidermidis; S. epidermidis Isolate 5): 8 µg/mL (≈ 17.2 µM)
MIC (S. aureus (VRSA); strain VRSA-VRS1): 16 µg/mL (≈ 34.5 µM)
MIC (S. aureus (VRSA); strain VRSA-VRS10): 32 µg/mL (≈ 68.9 µM)
MIC (S. aureus (VISA); NRS 1 / VISA, strain VISA-NRS1): 32 µg/mL (≈ 68.9 µM)
MIC (S. aureus (VISA); NRS 3 / VISA, strain VISA-NRS3): 16 µg/mL (≈ 34.5 µM)
MIC (S. aureus (VISA); VISA Isolate 3): 16 µg/mL (≈ 34.5 µM)
MIC (S. aureus (VISA); VISA Isolate 4): 32 µg/mL (≈ 68.9 µM)
MIC (S. aureus (VISA); VISA Isolate 5): 16 µg/mL (≈ 34.5 µM)
MIC (S. bovis): 32 µg/mL (≈ 68.9 µM)
MIC (S. pneumoniae (MDR); S. pneumoniae (MDR) Isolate 1): 32 µg/mL (≈ 68.9 µM)
MIC (S. pneumoniae (MDR); S. pneumoniae (MDR) Isolate 2): 32 µg/mL (≈ 68.9 µM)
MIC (S. pneumoniae (MDR); S. pneumoniae (MDR) Isolate 3): 16 µg/mL (≈ 34.5 µM)
MIC (S. pneumoniae (MDR); S. pneumoniae (MDR) Isolate 4): 32 µg/mL (≈ 68.9 µM)
MIC (S. pneumoniae (MDR); S. pneumoniae (MDR) Isolate 5): 16 µg/mL (≈ 34.5 µM)
MIC (B. cereus): 8 µg/mL (≈ 17.2 µM)
MIC (S. aureus (MRSA); MRSA / USA100, strain USA100): 26 µg/mL (≈ 56 µM)
MIC (S. aureus (MRSA); MRSA / USA200, strain USA200): 32 µg/mL (≈ 68.9 µM)
MIC (S. aureus (MRSA); MRSA / USA300, strain USA300 (USA300-0114)): 23 µg/mL (≈ 49.5 µM)
MIC (S. aureus (MRSA); MRSA / USA400, strain USA400): 23 µg/mL (≈ 49.5 µM)
MIC (S. aureus (MRSA); MRSA / USA500, strain USA500): 23 µg/mL (≈ 49.5 µM)
MIC (S. aureus (MRSA); MRSA / USA600, strain USA600): 32 µg/mL (≈ 68.9 µM)
MIC (S. aureus (MRSA); MRSA / USA700, strain USA700): 32 µg/mL (≈ 68.9 µM)
MIC (S. aureus (MRSA); MRSA / USA800, strain USA800): 23 µg/mL (≈ 49.5 µM)
MIC (S. aureus (MRSA); MRSA, strain USA900): 32 µg/mL (≈ 68.9 µM)
MIC (S. aureus (MRSA); MRSA, strain USA1000): 29 µg/mL (≈ 62.5 µM)
MIC (S. aureus (MRSA); MRSA, strain USA1100): 32 µg/mL (≈ 68.9 µM)
MIC (S. sanguis): 16 µg/mL (≈ 34.5 µM)
MIC (S. pyogenes): 8 µg/mL (≈ 17.2 µM)
MIC (S. agalactiae; S. agalactiae Isolate 1): 16 µg/mL (≈ 34.5 µM)
MIC (S. agalactiae; S. agalactiae Isolate 2): 32 µg/mL (≈ 68.9 µM)
MIC (S. agalactiae; S. agalactiae Isolate 3): 32 µg/mL (≈ 68.9 µM)
MIC (S. agalactiae; S. agalactiae Isolate 4): 32 µg/mL (≈ 68.9 µM)
antimicrobial activity in words (E. faecalis): mild activity
MIC (E. faecalis; E. faecalis Isolate 1): 64 µg/mL (≈ 138 µM)
MIC (E. faecalis; E. faecalis Isolate 3): 64 µg/mL (≈ 138 µM)
MIC (E. faecalis; E. faecalis Isolate 4): 64 µg/mL (≈ 138 µM)
MIC (E. faecalis; E. faecalis Isolate 5): 64 µg/mL (≈ 138 µM)
MIC (E. faecalis; Enterococcus faecalis, E. faecalis Isolate 2, read-out: MIC): 64 µg/mL (≈ 138 µM)
